Experimental data: US6770292B2, “Pharmaceutical compositions for oral administration” (Capsules, priority 2000, dated 2004)

System: blood calcium
Test: Blood calcium (calcemia) in rats after administration of calcitonin compositions
Type: in vivo, female Wistar rats
Settings: oral, 72 IU per animal, FIG. 5
Method: The study was carried out on female Wistar rats weighing 150 g, divided into groups of 4 rats. Oral administration was effected using an esophageal tube in a volume of 300 μl, corresponding to […] administered per animal.
A volume of 100 μl of an aqueous solution of calcitonin with a titer of 20 IU/ml, corresponding to a dose of 2 IU of calcitonin per animal, was administered subcutaneously to a positive control group.
A volume of 300 μl of an aqueous solution of calcitonin with a titer of 240 IU/ml, corresponding to 72 IU per animal, was administered orally to a negative control group.
The animals were fasted (water diet) 24 hours before the experiment. Blood samples were taken retro-orbitally under general anesthetic at T0 (before administration), T0+1 h, T0+2 h or T0+3 h, T0+5 h. 50 μl of blood are collected in microcapillary tubes containing heparin.
The blood calcium and pH are measured immediately after sample collection, directly in the microcapillary tube, by means of a CIBA-CORNING model 634 automatic analyzer to give the calcemia.

With “calcitonin [non-encapsulated calcitonin solution]” the decrease of calcemia was “not observed”.
